This note sets out measurements from patent US7049314B2, “Cyclopentyl indole derivatives” (Bristol-Myers Squibb Company, priority 2002, dated 2006).

For assay [1], the target named is T1, human norepinephrine transporters (Homo sapiens, UniProt P23975).
T1 construct: host or cells: MDCK cells (also 'HEK-hNET cells'), membrane homogenates
The assay can be described thus: Norepinephrine Transporter Binding Assay ([3H]-nisoxetine displacement, hNET cell membranes). Particulars: 2.7 nM [3H]-nisoxetine, 1 hr at 4° C., read-out: NE Reuptake (binding Ki). Here is the method: MDCK cells that stably express human norepinephrine transporters (HEK-hNET cells) were supplied by Receptor Biology, Inc. Pellets were resuspended by homogenization in buffer consisting of 50 mM Tris (pH 7.4 at 25° C.), 120 mM NaCl and 5 mM KCl. Membrane homogenates (200 μl/well, 8 ug protein) were incubated with 2.7 nM [^3H]-nisoxetine (specific activity=80 Ci/mMol) and increasing concentrations of test compounds for 1 hr at 4° C. in a total volume of 250 μl. The assay buffer consisted of 50 mM Tris (pH 7.4 at 25° C.), 120 mM NaCl and 5 mM KCl (pH 7.4 with conc. HCl). Plates were incubated for 1 hr at 4° C., then filtered through 0.5% PEI treated Whatman GF/B filters using a Brandel cell harvester. Filters were washed three times with 3 mL of ice-cold tris wash buffer. Non-specific binding was defined with 10 μM desipramine. Amount of radioligand bound in the presence and absence of competitor was analyzed by plotting (−)log drug concentration versus the amount of radioligand specifically bound. The midpoint of the displacement curve (IC50, nM), signifies the potency. Ki values were calculated using the method of Cheng and Prusoff (1973).

Assay [2] concerns the target T2, human serotonin transporters (Homo sapiens, UniProt P31645).
T2 construct: expressed in transfected cells
The assay can be described thus: Serotonin Transporter Binding Assay ([3H]-citalopram displacement, HEK-hSERT cell membranes). As to the method:
HEK-293 cells that stably express human serotonin transporters (HEK-hSERT cells) were grown at 37° C. in 5% CO2 as a monolayer in medium consisting of EMEM supplemented with 10% fetal bovine serum and G418 sulfate (500 μg/mL). To prepare membranes for radioligand binding experiments, cells were rinsed twice with phosphate-buffered saline (138 mM NaCl, 4.1 mM KCl, 5.1 mM Na2PO4, 1.5 mM […], 11.1 mM glucose, pH 7.4). Cells were transferred from plates to polypropylene tubes (16×100 mm), centrifuged at 1,200×g for 5 min and were frozen at −80° C. until assay. Following centrifugation, pellets were resuspended by homogenization in buffer consisting of 50 mM Tris (pH 7.7 at 25° C.), 120 mM NaCl and 5 mM KCl and then centrifuged at 32,000×g for 10 min. Following centrifugation, supernatants were discarded and pellets were resuspended in buffer consisting of 50 mM Tris (pH 7.4 at 25° C.), 150 mM NaCl and 5 mM KCl. Membrane homogenates (200 μl/plate) were incubated with 1 nM [^3H]-citalopram (specific activity=85 Ci/mMol) and increasing concentrations of test compounds for 1 hr at 25° C. in a total volume of 250 μl. The assay buffer consisted of 50 mM Tris (pH 7.4 at 25° C.), 120 mM NaCl and 5 mM KCl (pH 7.4 with conc. HCl). Plates were incubated for 1 hr at 25° C., then filtered through 0.5% PEI treated Whatman GF/B filters using a Brandel cell harvester. Filters were washed three times with 3 mL of ice-cold tris wash buffer. Non-specific binding was defined with 10 μM fluoxetine. Amount of radioligand bound in the presence and absence of competitor was analyzed by plotting (−)log drug concentration versus the amount of radioligand specifically bound. The midpoint of the displacement curve (IC50, nM), signifies the potency. Ki values were calculated using the method of Cheng and Prusoff (1973).

Where [3] appears, read: HEK-hSERT membranes, 1 nM [3H]-citalopram, 1 hr at 25° C., read-out: SERT (binding Ki).

pKi: −log10 of the molar value. Where two headings read alike, the source gives them in different places.

T1 sequence (P23975 whole entry): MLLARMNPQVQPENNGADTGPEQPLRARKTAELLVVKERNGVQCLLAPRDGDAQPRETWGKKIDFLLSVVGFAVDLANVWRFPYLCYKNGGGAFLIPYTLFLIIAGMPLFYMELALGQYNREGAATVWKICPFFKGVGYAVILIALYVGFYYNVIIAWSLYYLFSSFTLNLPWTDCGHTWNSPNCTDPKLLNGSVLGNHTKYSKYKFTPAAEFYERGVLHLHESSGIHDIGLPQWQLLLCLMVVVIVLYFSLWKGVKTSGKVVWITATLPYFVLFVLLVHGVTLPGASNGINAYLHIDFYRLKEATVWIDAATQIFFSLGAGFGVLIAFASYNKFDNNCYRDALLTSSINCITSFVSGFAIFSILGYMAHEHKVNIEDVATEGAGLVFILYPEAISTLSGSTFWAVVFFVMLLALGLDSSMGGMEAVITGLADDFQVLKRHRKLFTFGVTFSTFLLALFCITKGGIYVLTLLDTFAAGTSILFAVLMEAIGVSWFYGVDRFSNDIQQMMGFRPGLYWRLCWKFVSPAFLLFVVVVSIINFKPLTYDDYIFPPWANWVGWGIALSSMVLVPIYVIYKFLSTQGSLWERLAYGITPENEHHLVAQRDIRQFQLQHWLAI
T2 sequence (P31645 whole entry): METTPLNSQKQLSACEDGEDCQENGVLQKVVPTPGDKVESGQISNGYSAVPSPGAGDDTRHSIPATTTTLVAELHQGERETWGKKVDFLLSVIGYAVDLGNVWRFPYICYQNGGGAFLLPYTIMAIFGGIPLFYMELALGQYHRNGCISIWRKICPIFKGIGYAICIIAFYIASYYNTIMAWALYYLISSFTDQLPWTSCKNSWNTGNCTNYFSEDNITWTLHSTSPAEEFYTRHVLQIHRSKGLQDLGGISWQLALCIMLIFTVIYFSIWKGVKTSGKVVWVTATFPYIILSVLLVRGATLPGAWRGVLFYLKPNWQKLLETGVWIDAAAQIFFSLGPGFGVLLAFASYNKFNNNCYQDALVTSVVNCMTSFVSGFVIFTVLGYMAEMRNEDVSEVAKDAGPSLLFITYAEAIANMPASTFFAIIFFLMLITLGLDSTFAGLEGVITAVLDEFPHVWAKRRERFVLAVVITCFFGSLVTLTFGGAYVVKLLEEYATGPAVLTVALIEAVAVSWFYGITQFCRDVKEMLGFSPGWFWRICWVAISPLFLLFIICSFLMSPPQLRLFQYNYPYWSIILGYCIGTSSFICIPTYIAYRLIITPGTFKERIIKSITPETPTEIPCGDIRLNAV

As a reminder, the pKi is the Ki on a negative log10 scale, so that one unit is a factor of ten. In the case of `CNC1CCC(c2c[nH]c3ccc(C#N)cc23)C1` (stereo not shown) [Compound 1, 3-(3-Methylamino-cyclopentyl)-1H-indole-5-carbonitrile], the pKi in assay [1] was under 6.00; in assay [2], 8.00 to 9.00.
The corresponding values for `CCNC1CCC(c2c[nH]c3ccc(C#N)cc23)C1` (stereo not shown) [Compound 2, 3-(3-Ethylamino-cyclopentyl)-1H-indole-5-carbonitrile] are under 6.00 and 8.00 to 9.00.
With `CN(C)C1CCC(c2c[nH]c3ccc(C#N)cc23)C1` (stereo not shown) [Compound 3, 3-(3-Dimethylamino-cyclopentyl)-1H-indole-5-carbonitrile], the pKi was under 6.00 in assay [1] and over 9.00 in assay [2] (setting [3]).
Take `CCN(C)C1CCC(c2c[nH]c3ccc(C#N)cc23)C1` (stereo not shown) [Compound 4, 3-[3-(Ethyl-methyl-amino)-cyclopentyl]-1H-indole-5-carbonitrile]: the pKi in assay [1] was under 6.00; in assay [2] (setting [3]) it was 8.00 to 9.00.
The corresponding values for `CCN(CC)C1CCC(c2c[nH]c3ccc(C#N)cc23)C1` (stereo not shown) [Compound 5, 3-(3-Diethylamino-cyclopentyl)-1H-indole-5-carbonitrile] are under 6.00 and 8.00 to 9.00.
For `N#Cc1ccc2[nH]cc(C3CCC(N4CCCC4)C3)c2c1` (stereo not shown) [Compound 6, 3-(3-Pyrrolidin-1-yl-cyclopentyl)-1H-indole-5-carbonitrile], the figures for the pKi in assay [1] and in assay [2] were under 6.00 and 8.00 to 9.00, respectively.
With `N#Cc1ccc2[nH]cc(C3CCC(N4Cc5ccccc5C4)C3)c2c1` (stereo not shown) [Compound 7, 3-[3-(1,3-Dihydro-isoindol-2-yl)-cyclopentyl]-1H-indole-5-carbonitrile], the pKi in assay [1] was under 6.00; in assay [2] (setting [3]) it was 8.00 to 9.00.
The matching figures for `N#Cc1ccc2[nH]cc(C3CCC(N4CCc5ccccc5C4)C3)c2c1` (stereo not shown) [Compound 8, 3-[3-(3,4-Dihydro-1H-isoquinolin-2-yl)-cyclopentyl]-1H-indole-5-carbonitrile]: 6.00 to 7.00 and 8.00 to 9.00.
The corresponding values for `N#Cc1ccc2[nH]cc(C3CCC(NCCc4ccccc4)C3)c2c1` (stereo not shown) [Compound 9, 3-(3-Phenethylamino-cyclopentyl)-1H-indole-5-carbonitrile] are 6.00 to 7.00 and 8.00 to 9.00.
The corresponding values for `CN(CCc1ccccc1)C1CCC(c2c[nH]c3ccc(C#N)cc23)C1` (stereo not shown) [Compound 10, 3-[3-(Methyl-phenethyl-amino)-cyclopentyl]-1H-indole-5-carbonitrile] are 6.00 to 7.00 and 8.00 to 9.00.
Take `N#Cc1ccc2[nH]cc(C3CCC(N4CCOCC4)C3)c2c1` (stereo not shown) [Compound 11, 3-(3-Morpholin-4-yl-cyclopentyl)-1H-indole-5-carbonitrile]: the pKi in assay [1] is under 6.00; in assay [2], over 9.00.
As for `CN(Cc1ccccc1)C1CCC(c2c[nH]c3ccc(C#N)cc23)C1` (stereo not shown) [Compound 12, 3-[3-(Benzyl-methyl-amino)-cyclopentyl]-1H-indole-5-carbonitrile], the pKi in assay [1] is 6.00 to 7.00; in assay [2] (setting [3]), 8.00 to 9.00.
The corresponding values for `N#Cc1ccc2[nH]cc(C3CCC(NCc4ccccc4)C3)c2c1` (stereo not shown) [Compound 13, 3-(3-Benzylamino-cyclopentyl)-1H-indole-5-carbonitrile] are 6.00 to 7.00 and 8.00 to 9.00.
For the compound `N#Cc1ccc2[nH]cc(C3CCC(N4CCCCC4)C3)c2c1` (stereo not shown) [Compound 14, 3-(3-Piperidin-1-yl-cyclopentyl)-1H-indole-5-carbonitrile], the pKi in assay [1] is under 6.00; in assay [2] it was over 9.00.
As to `CCCN(CCC)C1CCC(c2c[nH]c3ccc(C#N)cc23)C1` (stereo not shown) [Compound 15, 3-(3-Dipropylamino-cyclopentyl)-1H-indole-5-carbonitrile], the figures for the pKi in assay [1] and in assay [2] (setting [3]) were under 6.00 and 8.00 to 9.00, respectively.
On to `CCCNC1CCC(c2c[nH]c3ccc(C#N)cc23)C1` (stereo not shown) [Compound 16, 3-(3-Propylamino-cyclopentyl)-1H-indole-5-carbonitrile], for which the pKi was under 6.00 in assay [1] and over 9.00 in assay [2].
The corresponding values for `CNC1CCC(c2cn(C)c3ccc(C#N)cc23)C1` (stereo not shown) [Compound 17, 1-Methyl-3-(3-methylamino-cyclopentyl)-1H-indole-5-carbonitrile] are under 6.00 and 8.00 to 9.00.
The matching figures for `CCNC1CCC(c2cn(C)c3ccc(C#N)cc23)C1` (stereo not shown) [Compound 18, 3-(3-Ethylamino-cyclopentyl)-1-methyl-1H-indole-5-carbonitrile]: under 6.00 and over 9.00.
In the case of `Cn1cc(C2CCC(NCc3ccccc3)C2)c2cc(C#N)ccc21` (stereo not shown) [Compound 19, 3-(3-Benzylamino-cyclopentyl)-1-methyl-1H-indole-5-carbonitrile], the figures for the pKi in assay [1] and in assay [2] (setting [3]) were 6.00 to 7.00 and 8.00 to 9.00, respectively.
The matching figures for `Cn1cc(C2CCC(NCCc3ccccc3)C2)c2cc(C#N)ccc21` (stereo not shown) [Compound 20, 1-Methyl-3-(3-phenethylamino-cyclopentyl)-1H-indole-5-carbonitrile]: 6.00 to 7.00 and 8.00 to 9.00.
Consider `CN(C)C1CCC(c2cn(C)c3ccc(C#N)cc23)C1` (stereo not shown) [Compound 21, 3-(3-Dimethylamino-cyclopentyl)-1-methyl-1H-indole-5-carbonitrile], for which the pKi is under 6.00 in assay [1] and 8.00 to 9.00 in assay [2].
Regarding `CN(C)C1CCC(c2c[nH]c3cccc(F)c23)C1` (stereo not shown) [Compound 37, 3-(4-Fluoro-1H-indol-3-yl)-cyclopentyl-dimethyl-amine], in assay [2] (setting [3]), the pKi was 7.00 to 8.00.
Same read-out and setting: as for `CN(C)C1CCC(c2c[nH]c3cccc(Br)c23)C1` (stereo not shown) [Compound 38, 3-(4-Bromo-1H-indol-3-yl)-cyclopentyl-dimethyl-amine], the figure is 8.00 to 9.00; as for `CN(C)C1CCC(c2c[nH]c3ccc(Cl)cc23)C1` (stereo not shown) [Compound 39, 3-(5-Chloro-1H-indol-3-yl)-cyclopentyl-dimethyl-amine], 8.00 to 9.00.
`CN(C)C1CCC(c2c[nH]c3ccc(Br)cc23)C1` (stereo not shown) [Compound 40, 3-(5-Bromo-1H-indol-3-yl)-cyclopentyl-dimethyl-amine]: the pKi in assay [2] (setting [3]) was 8.00 to 9.00.
Same read-out and setting: as for `CN(C)C1CCC(c2c[nH]c3ccc(I)cc23)C1` (stereo not shown) [Compound 41, 3-(5-Iodo-1H-indol-3-yl)-cyclopentyl-dimethyl-amine], the figure is 7.00 to 8.00; as for `CN(C)C1CCC(c2c[nH]c3cc(F)ccc23)C1` (stereo not shown) [Compound 42, 3-(6-Fluoro-1H-indol-3-yl)-cyclopentyl-dimethyl-amine], 8.00 to 9.00; as for `CN(C)C1CCC(c2c[nH]c3cc(Cl)ccc23)C1` (stereo not shown) [Compound 43, 3-(6-Chloro-1H-indol-3-yl)-cyclopentyl-dimethyl-amine], 8.00 to 9.00.
Still for that read-out and setting: as for `CN(C)C1CCC(c2c[nH]c3cc(Br)ccc23)C1` (stereo not shown) [Compound 44, 3-(6-Bromo-1H-indol-3-yl)-cyclopentyl-dimethyl-amine], the figure is 8.00 to 9.00.
Same read-out and setting: as for `CN(C)C1CCC(c2c[nH]c3c(F)cccc23)C1` (stereo not shown) [Compound 45, 3-(7-Fluoro-1H-indol-3-yl)-cyclopentyl-dimethyl-amine], the figure is 8.00 to 9.00; as for `CN(C)C1CCC(c2c[nH]c3c(Cl)cccc23)C1` (stereo not shown) [Compound 46, 3-(7-Chloro-1H-indol-3-yl)-cyclopentyl-dimethyl-amine], over 9.00; as for `CN(C)C1CCC(c2c[nH]c3c(Br)cccc23)C1` (stereo not shown) [Compound 47, 3-(7-Bromo-1H-indol-3-yl)-cyclopentyl-dimethyl-amine], 8.00 to 9.00.
Consider `N#Cc1ccc2[nH]cc([C@H]3CCC(N)C3)c2c1` (stereo partly drawn) [Compound 60, (1S)-3-(3-Amino-cyclopentyl)-1H-indole-05-carbonitrile], for which the pKi in assay [2] (setting [3]) was 7.00 to 8.00.
The same measure, in the same setting: as for `N#Cc1ccc2[nH]cc([C@H]3CCC(NC4CC[C@H](c5c[nH]c6ccc(C#N)cc56)C4)C3)c2c1` (stereo partly drawn) [Compound 61, (3S,3′S)-bis-(3-(5-cyano-1H-indol-3-yl)cyclopentyl)amine], the figure is 8.00 to 9.00.
